# Data: patent publication US8927500B2, “Peptidomimetic macrocycles” (Aileron Therapeutics, Inc., priority 2012, dated 2015)
# Read-outs that look alike come from different tables or passages of the source. Where a SMILES comes first, the peptide text is derived from it. Bridges are numbered along the chain shown (N, C = ends). [ ]: non-standard residue; d: D form. The star is where a group is joined. dPhe(4-CF3) = N[C@H](Cc1ccc(C(F)(F)F)cc1)C(=O)O; Benzoyl(4-F) = O=C(c1ccc(F)cc1)*; R8 = C=CCCCCCC[C@@](C)(N)C(=O)O; S8 = C=CCCCCCC[C@](C)(N)C(=O)O; Cba = N[C@@H](CC1CCC1)C(=O)O; R5 = C=CCCC[C@@](C)(N)C(=O)O; hLeu = CC(C)CC[C@H](N)C(=O)O; S5 = C=CCCC[C@](C)(N)C(=O)O; Nle = CCCC[C@H](N)C(=O)O; Sar = CNCC(=O)O
# Columns and labels:
# MDM2 = MDM2 (Homo sapiens, UniProt Q00987); assay: Competitive fluorescence polarization assay for MDM2; type: binding; details: competitive FP assay, MDM2; for IC50: read-out: IC50 (MDM2)
# MDMX = target: T1, MDMX (Homo sapiens, UniProt O15151); assay: Competitive fluorescence polarization assay for MDMX; type: binding; details: competitive FP assay; for IC50: read-out: IC50 (MDMX)
# T1 sequence (O15151 1-125): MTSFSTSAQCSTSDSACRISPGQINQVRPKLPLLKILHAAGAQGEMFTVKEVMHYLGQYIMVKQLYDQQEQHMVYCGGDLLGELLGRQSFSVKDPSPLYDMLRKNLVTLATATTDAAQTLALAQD
# MDM2, sequence (Q00987 1-125): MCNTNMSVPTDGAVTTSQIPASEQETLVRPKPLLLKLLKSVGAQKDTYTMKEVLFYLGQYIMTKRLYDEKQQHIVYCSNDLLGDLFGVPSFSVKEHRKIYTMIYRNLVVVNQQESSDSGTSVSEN
IC50 (MDM2),Ki (MDM2; read-out: Ki (MDM2)),IC50 (MDMX),Ki (MDMX; read-out: Ki (MDMX)),SMILES,Ki (MDM2; Ki (MDM2)),Ki (MDMX; Ki (MDMX))
0.01 to 0.1 µM,< 0.01 µM,0.1 to 1 µM,0.01 to 0.1 µM,"CC[C@H](C)[C@H](NC(C)=O)C(=O)N[C@H](C(=O)N[C@@H](Cc1ccccc1)C(=O)N[C@]1(C)CCCCCCC=CCCC[C@@](C)(C(=O)N[C@@H](C)C(=O)N[C@@H](Cc2c[nH]cn2)C(=O)N[C@@H](Cc2ccccc2)C(=O)N[C@@H](C)C(N)=O)NC(=O)[C@H](CC(C)C)NC(=O)[C@H](CCC(N)=O)NC(=O)[C@H](C)NC(=O)[C@H](Cc2c[nH]c3ccccc23)NC(=O)[C@H](Cc2c[nH]cn2)NC(=O)[C@H](CCC(=O)O)NC1=O)[C@@H](C)O (single isomer, unassigned) [compound 189]",,
0.1 to 1 µM,0.01 to 0.1 µM,0.1 to 1 µM,0.01 to 0.1 µM,"CCCC[C@H](NC(=O)[C@H](C)NC(=O)[C@H](C)NC(=O)[C@]1(C)CCCC=CCCCCCC[C@@](C)(NC(=O)[C@H](Cc2ccccc2)NC(=O)[C@@H](NC(=O)[C@H](CC(C)C)NC(C)=O)[C@@H](C)O)C(=O)N[C@@H](C)C(=O)N[C@@H](Cc2ccc(O)cc2)C(=O)N[C@@H](Cc2c[nH]c3ccccc23)C(=O)N[C@@H](C)C(=O)N[C@@H](CCC(N)=O)C(=O)N[C@@H](CC(C)C)C(=O)N1)C(=O)N[C@@H](C)C(N)=O (single isomer, unassigned) [compound 68]",,
0.01 to 0.1 µM,,> 1 µM,,CC(=O)N[C@@H](C(=O)N[C@@]1(C)CCCCCCC=CCCC[C@](C)(C(=O)N[C@H](CC(C)C)C(=O)N[C@H](CC(C)C)C(=O)N[C@H](CCCNC(=N)N)C(N)=O)NC(=O)[C@@H](CCC(=O)O)NC(=O)[C@@H](Cc2ccc(C(F)(F)F)cc2)NC(=O)[C@@H](CC(N)=O)NC(=O)[C@@H](C)NC(=O)[C@@H](Cc2ccc(O)cc2)NC(=O)[C@@H](Cc2c[nH]c3ccccc23)NC1=O)[C@H](C)O [compound 756] (Ac-[dT][S8][dW][dY][dA][dN][dPhe(4-CF3)][dE][R5][dL][dL][dR]-NH2; staple 2-9),,
0.01 to 0.1 µM,< 0.01 µM,0.01 to 0.1 µM,0.01 to 0.1 µM,CC(=O)N[C@@H](CC(C)C)C(=O)N[C@H](C(=O)N[C@@H](Cc1ccccc1)C(=O)N[C@]1(C)CCCCCCC=CCCC[C@@](C)(C(=O)N[C@@H](CO)C(=O)N[C@@H](C)C(=O)N[C@@H](Cc2ccccc2)C(=O)N[C@H](C)C(N)=O)NC(=O)[C@H](CC2CCC2)NC(=O)[C@H](CCC(N)=O)NC(=O)[C@H](C)NC(=O)[C@H](Cc2c[nH]c3ccccc23)NC(=O)[C@H](Cc2ccc(O)cc2)NC(=O)[C@H](CCC(=O)O)NC1=O)[C@@H](C)O [compound 257] (Ac-LTF[R8]EYWAQ[Cba][S5]SAF[dA]-NH2; staple 4-11),,
< 0.01 µM,< 0.01 µM,0.01 to 0.1 µM,0.01 to 0.1 µM,"CC(=O)N[C@@H](CC(C)C)C(=O)N[C@H](C(=O)N[C@@H](Cc1ccccc1)C(=O)N[C@]1(C)CCCCCCC=CCCC[C@@](C)(C(=O)N[C@@H](CO)C(=O)N[C@@H](C)C(=O)N[C@@H](C)C(N)=O)NC(=O)[C@H](CC2CCC2)NC(=O)[C@H](CCC(N)=O)NC(=O)[C@H](CO)NC(=O)[C@H](Cc2c[nH]c3ccccc23)NC(=O)[C@H](Cc2ccc(O)cc2)NC(=O)[C@H](CCC(=O)O)NC1=O)[C@@H](C)O (single isomer, unassigned) [compound 293]",,
0.01 to 0.1 µM,< 0.01 µM,0.01 to 0.1 µM,0.01 to 0.1 µM,CC[C@H](C)[C@H](NC(=O)[C@H](C)NC(=O)[C@H](C)NC(=O)[C@]1(C)CCCC=CCCCCCC[C@@](C)(NC(=O)[C@H](Cc2ccccc2)NC(=O)[C@@H](NC(=O)[C@H](CC(C)C)NC(C)=O)[C@@H](C)O)C(=O)N[C@@H](C)C(=O)N[C@@H](Cc2ccc(O)cc2)C(=O)N[C@@H](Cc2c[nH]c3ccccc23)C(=O)N[C@@H](C)C(=O)N[C@@H](CCC(N)=O)C(=O)N[C@@H](CC2CCC2)C(=O)N1)C(=O)N[C@H](C)C(N)=O [compound 264] (Ac-LTF[R8]AYWAQ[Cba][S5]AAI[dA]-NH2; staple 4-11),,
0.01 to 0.1 µM,0.01 to 0.1 µM,0.1 to 1 µM,0.01 to 0.1 µM,CCCC[C@H](NC(=O)[C@H](C)NC(=O)[C@H](C)NC(=O)[C@]1(C)CCCC=CCCCCCC[C@@](C)(NC(=O)[C@H](Cc2ccccc2)NC(=O)[C@@H](NC(=O)[C@H](CC(C)C)NC(C)=O)[C@@H](C)O)C(=O)N[C@@H](CCC(=O)O)C(=O)N[C@@H](Cc2ccc(O)cc2)C(=O)N[C@@H](Cc2c[nH]c3ccccc23)C(=O)N[C@@H](C)C(=O)N[C@@H](CCC(N)=O)C(=O)N[C@@H](CCC(C)C)C(=O)N1)C(=O)N[C@@H](C)C(N)=O [compound 318] (Ac-LTF[R8]EYWAQ[hLeu][S5]AA[Nle]A-NH2; staple 4-11),,
< 0.01 µM,< 0.01 µM,0.1 to 1 µM,0.01 to 0.1 µM,CC(=O)N[C@@H](CCC(=O)O)C(=O)N[C@H](C(=O)N[C@@H](Cc1ccccc1)C(=O)N[C@]1(C)CCCCCCC=CCCC[C@@](C)(C(=O)N[C@@H](CO)C(=O)N[C@@H](CC(N)=O)C(=O)N[C@H](C)C(N)=O)NC(=O)[C@H](CC(C)C)NC(=O)[C@H](CCC(N)=O)NC(=O)[C@H](C)NC(=O)[C@H](Cc2c[nH]c3ccccc23)NC(=O)[C@H](Cc2ccc(O)cc2)NC(=O)[C@H](C(C)C)NC1=O)[C@@H](C)O [compound 136] (Ac-ETF[R8]VYWAQL[S5]SN[dA]-NH2; staple 4-11),,
0.1 to 1 µM,0.1 to 1 µM,> 1 µM,> 1 µM,C=CCCCCCC[C@@](C)(NC(=O)[C@H](Cc1ccccc1)NC(=O)[C@@H](NC(=O)[C@H](CC(C)C)NC(C)=O)[C@@H](C)O)C(=O)N[C@@H](C)C(=O)N[C@@H](Cc1ccc(O)cc1)C(=O)N[C@@H](Cc1c[nH]c2ccccc12)C(=O)N[C@@H](C)C(=O)N[C@@H](CCC(N)=O)C(=O)N[C@@H](CC(C)C)C(=O)N[C@@](C)(CCCC=C)C(=O)N[C@@H](C)C(=O)N[C@@H](C)C(=O)N[C@@H](CCCC)C(=O)N[C@@H](C)C(N)=O [compound 411],,
0.01 to 0.1 µM,< 0.01 µM,> 1 µM,0.1 to 1 µM,"CC[C@H](C)[C@H](NC(C)=O)C(=O)N[C@H](C(=O)N[C@@H](Cc1ccccc1)C(=O)N[C@]1(C)CCCCCCC=CCCC[C@@](C)(C(=O)N[C@@H](C)C(=O)N[C@@H](Cc2c[nH]cn2)C(=O)N[C@@H](Cc2ccccc2)C(=O)N[C@@H](C)C(N)=O)NC(=O)[C@H](CC(C)C)NC(=O)[C@H](CCC(N)=O)NC(=O)[C@H](C)NC(=O)[C@H](Cc2c[nH]c3ccccc23)NC(=O)[C@H](Cc2ccc(O)cc2)NC(=O)[C@H](Cc2ccccc2)NC1=O)[C@@H](C)O (single isomer, unassigned) [compound 185]",,
0.01 to 0.1 µM,< 0.01 µM,0.01 to 0.1 µM,0.01 to 0.1 µM,CCCC[C@H](NC(=O)[C@H](C)NC(=O)[C@H](C)NC(=O)[C@]1(C)CCCC=CCCCCCC[C@@](C)(NC(=O)[C@H](Cc2ccccc2)NC(=O)[C@@H](NC(=O)[C@H](CC(C)C)NC(C)=O)[C@@H](C)O)C(=O)N[C@@H](CCC(=O)O)C(=O)N[C@@H](Cc2ccc(O)cc2)C(=O)N[C@@H](Cc2c[nH]c3ccccc23)C(=O)N[C@@H](C)C(=O)N[C@@H](CCC(N)=O)C(=O)N[C@@H](CC(C)C)C(=O)N1)C(=O)N[C@@H](C)C(=O)N[C@@H](C)C(N)=O [compound 377] (Ac-LTF[R8]EYWAQL[S5]AA[Nle]AA-NH2; staple 4-11),,
,,,,CC(C)C[C@H](NC(=O)c1ccc(F)cc1)C(=O)N[C@H](C(=O)N[C@@H](Cc1ccccc1)C(=O)N[C@]1(C)CCCCCCC=CCCC[C@@](C)(C(=O)N[C@@H](C)C(=O)N[C@@H](C)C(=O)N[C@@H](C)C(=O)N[C@@H](C)C(=O)N[C@@H](C)C(=O)N[C@H](C)C(N)=O)NC(=O)[C@H](CC(C)C)NC(=O)[C@H](CCC(N)=O)NC(=O)[C@H](C)NC(=O)[C@H](Cc2c[nH]c3ccccc23)NC(=O)[C@H](Cc2ccc(O)cc2)NC(=O)[C@H](CCC(=O)O)NC1=O)[C@@H](C)O [compound 596] ({Benzoyl(4-F)}-LTF[R8]EYWAQL[S5]AAAAA[dA]-NH2; staple 4-11),< 0.01 µM,0.01 to 0.1 µM
0.01 to 0.1 µM,< 0.01 µM,0.1 to 1 µM,0.01 to 0.1 µM,CC[C@H](C)[C@H](NC(C)=O)C(=O)N[C@H](C(=O)N[C@@H](Cc1ccccc1)C(=O)N[C@]1(C)CCCCCCC=CCCC[C@@](C)(C(=O)N[C@@H](C)C(=O)N[C@@H](Cc2c[nH]cn2)C(=O)N[C@@H](Cc2ccccc2)C(=O)N[C@@H](C)C(N)=O)NC(=O)[C@H](CC(C)C)NC(=O)[C@H](CCC(N)=O)NC(=O)[C@H](C(C)C)NC(=O)[C@H](Cc2c[nH]c3ccccc23)NC(=O)[C@H](Cc2ccc(O)cc2)NC(=O)[C@H](CCC(=O)O)NC1=O)[C@@H](C)O [compound 192] (Ac-ITF[R8]EYWVQL[S5]AHFA-NH2; staple 4-11),,
,< 0.01 µM,,0.01 to 0.1 µM,CC(=O)N[C@@H](CC(C)C)C(=O)N[C@H](C(=O)N[C@@H](Cc1ccccc1)C(=O)N[C@]1(C)CCCCCCC=CCCC[C@@](C)(C(=O)N[C@@H](C)C(=O)N[C@@H](C)C(=O)N(C)CC(=O)N[C@@H](C)C(=O)N[C@@H](C)C(=O)N[C@H](C)C(N)=O)NC(=O)[C@H](CC(C)C)NC(=O)[C@H](CCC(N)=O)NC(=O)[C@H](C)NC(=O)[C@H](Cc2c[nH]c3ccccc23)NC(=O)[C@H](Cc2ccc(O)cc2)NC(=O)[C@H](CCC(=O)O)NC1=O)[C@@H](C)O [compound 575] (Ac-LTF[R8]EYWAQL[S5]AA[Sar]AA[dA]-NH2; staple 4-11),,
< 0.01 µM,< 0.01 µM,0.1 to 1 µM,0.01 to 0.1 µM,"CC[C@H](C)[C@H](NC(C)=O)C(=O)N[C@H](C(=O)N[C@@H](Cc1ccccc1)C(=O)N[C@]1(C)CCCCCCC=CCCC[C@@](C)(C(=O)N[C@@H](C)C(=O)N[C@@H](C)C(=O)N[C@H](C(=O)N[C@H](C)C(N)=O)[C@@H](C)CC)NC(=O)[C@H](CC(C)C)NC(=O)[C@H](CCC(N)=O)NC(=O)[C@H](C)NC(=O)[C@H](Cc2c[nH]c3ccccc23)NC(=O)[C@H](Cc2c[nH]cn2)NC(=O)[C@H](CCC(=O)O)NC1=O)[C@@H](C)O (single isomer, unassigned) [compound 173]",,
